Molecules are shown by their SMILES. Counter-ions that a name gives are not always drawn.

Test [1] concerns PDx models with patient derived breast cancer tumor. Kind of test: Tumor growth inhibition (TGI) in patient-derived xenograft (PDx) models, FIG. 1. Format: in vivo, athymic nude mice. (In general: Xenograft models place foreign cells or tissue in a host animal.)
The next test concerns uterine tissue. Kind of test: Uterotropic assay in mice. Conditions: RAD1901 0.03 to 100 mg/kg. Format: in vivo. Here is the method:
Twenty-four hours after the final dose, all animals were euthanized by carbon dioxide inhalation. Body weights and wet uterine weights were recorded for each animal.

For the compound `CCNCCc1ccc(CN(CC)c2cc(OC)ccc2[C@@H]2CCc3cc(O)ccc3C2)cc1` [RAD1901, (6R)-6-(2-(N-(4-(2-(ethylamino)ethyl)benzyl)-N-ethylamino)-4-methoxyphenyl)-5,6,7,8-tetrahydronaphthalen-2-ol dihydrochloride], the “tumor growth inhibition (in words)” value in test [1] (PDx models, RAD1901 60 or 90 mg/kg p.o., q.d., 60 days, alone or with palbociclib) was “efficacious in inhibiting tumor growth”. Moreover, the TGI in test [1] (RAD1901 single agent treatment, PDx-2, PDx-5, PDx-7, PDx-8, PDx-9 and PDx-10) is reported as at most 64%; in test [1] (RAD1901 single agent treatment, PDx-6 and PDx-11 models), at least 65%; in test [1] (xenograft models wherein RAD1901 alone achieved a TGI of less than 25%) it was “less than 25%”. The “uterine wet weight or epithelial thickness (in words)” value in the test with uterine tissue is given as “no effect on uterine wet weight or epithelial thickness”.
